Columns and labels:
[1] = system: 3T3-L1 cells as preadipocytes; test: Inhibition of adipocyte differentiation, Oil-Red O staining; assay type: cell-based, Mouse; settings: treated every other day from day 0 of differentiation, 14 days culture, different concentrations
Protocol: Mouse adipocyte line (3T3-L1) was used to evaluate effects of various piperine-based compounds on adipocyte differentiation and growth. 3T3-L1 cells as preadipocytes were dispensed on a 12-well plate, and cultured in a 5% CO2 incubator using DMEM medium supplemented with 1% penicillin-streptomycin, 1% non-essential amino acids, and 10% FBS. The cultured 3T3-L1 cells were made into differentiated adipocytes by being cultured for […] in a medium containing 0.5 mM […], 1 μM dexamethasone (MDI), and 1 μg/mL insulin, and then differentiated into mature adipocytes by being further cultured in a medium 1 μg/mL insulin. After that, they were further cultured for 10 days while changing the DMEM culture liquid every other day to obtain fully differentiated adipocytes.
The culture liquid was treated with 13 new compounds with different concentrations every other day from day 0 when DMI was added to the 3T3-L1 cells for differentiation. Derivative compounds were dissolved in DMSO before the use thereof, and a negative control group added with only DMSO was included in the experiment.
After the culturing for a total of 14 days, the culture liquids were removed when the cells were fully differentiated, and fat spheres contained in the differentiated adipocytes were stained. For this, the cells were washed 2 times with phosphate buffered saline (PBS), immobilized in 10% buffered neutral formalin for 1 hour, washed again once with PBS, stained for 1 hour by adding 1 mL of Oil-Red-O, which specifically stains fats red, to the 12-well plate, and then washed 2 times with distilled water. In order to measure the level of triglyceride contained in the differentiated 3T3-L1 cells, the stained cells were dissolved in 1 mL of iso-butanol and the OD value was measured at 600 nm.

C57BL/6J mice [2] = test: Oral glucose tolerance test in mice fed test diets; assay type: in vivo; settings: 8 weeks of diet
Protocol: After 8 weeks of experimental diet, the oral glucose tolerance test was performed on all groups. After 6 hours of fasting, the mice were orally administered with glucose (2 g glucose/10 ml of distilled water/kg body weight). Before the oral administration of glucose, at 15, 30, 60, and 120 min after the administration of glucose, blood samples were taken from the tail cut (by removing the distal 1 cm of the tail) and blood glucose concentrations were measured using a blood glucose monitoring device.

C57BL/6J mice [3] = test: Body weight and visceral fat weight of mice fed high-fat test diets (LJ-2498 study); assay type: in vivo; settings: 0.05% in high-fat diet, 10 weeks
Protocol: The obesity-inducing diet used in this example was high-fat diet (HFD: 40% fat calorie, 17 g lard+3% corn oil/100 g diet). LJ-2498 chemical (JL-2498) or piperine (Pin)-containing diet had the same composition as HFD, except that LJ-2498 chemical was included at 0.05%. As control drugs, metformin (Metf) as a diabetic treatment in a level of 0.1% and sibutramine as an obesity treatment in a level of 0.1% were added to a high-fat diet. A normal diet group (Chow) was fed with commercial rodent feedstuff.
(§1) 5-week-old male C57BL/6J mice (Orient, Korea) were accustomed to the laboratory environment for 1 week while feeding solid feed. Then, they were randomly divided into normal diet group, high-fat diet control group and test group of 3 types and control drug group of 2 types. They were bred for a total of 10 weeks (n=8/group). The diet was given between 10 and 11 a.m. every day together with water. Diet intake was measured every day and body weight was measured every week. In order to avoid transient body weight increase after feed intake, body weight was measured 2 hours after removing the feed. After fasting the test animal for at least 12 hours and anesthetizing with diethyl ether, blood, liver and visceral fat (epididymal fat, perirenal fat, mesenteric fat and retroperitoneal fat) were taken and weighed after washing with 0.1 M PBS (pH 7.4). Blood taken from the abdominal aorta was centrifuged at 1000×g for 15 minutes to separate the serum.

C57BL/6J mice [4] = test: Liver weight and lipid level in liver tissues of mice fed test diets; assay type: in vivo; settings: 0.05% in high-fat diet, 10 weeks
Protocol: as §1
Lipids were extracted from the liver tissue according to Folch et al.'s method Folch J et al., J Biol. Chem. 226: 497-509 (1957)). After adding 1 mL of distilled water to 0.25 g of liver tissue, the liver tissue was homogenized using a Polytron homogenizer (IKA-Werke GmbH & Co., Ultra-Turrax, Staufen, Germany). After adding 5 mL of chloroform:methanol solution (2:1, v/v) to the homogenate and mixing well, the mixture was centrifuged at 1000×g for 10 minutes. After adding 2 mL of chloroform:methanol solution (2:1, v/v) again to the supernatant, the same procedure was repeated to completely separate the lipid components of the liver. After adding 3 mL of chloroform:methanl:0.05% CaCl2 (3:48:47, v/v/v) solution to the remaining pellets and mixing well for 1 minute, followed by centrifugation at 1000×g for 10 minutes, the resulting pellets were completely dried with nitrogen gas. The dried lipids were dissolved in 1 mL of methanol and then analyzed.
The same kit (Bio Clinical System) as that used for the plasma analysis was used to measure the triglyceride and cholesterol levels of the liver tissue.

C57BL/6J mice [5] = test: Biochemical analysis of blood (plasma lipids, ALT, AST) of mice fed test diets; assay type: in vivo; settings: 0.05% in high-fat diet, 10 weeks
Protocol: as §1
After 10 weeks of breeding, total cholesterol, triglyceride and glucose levels in the plasma and lipid levels in the liver tissue were measured as follows. Total cholesterol, triglyceride, free fatty acid and glucose levels in the plasma were measured twice for each using a commercially available kit (Bio Clinical System). The activity of ALT (alanine aminotransferase) and AST (aspartate aminotransferase) used as liver function indicator were measured twice for each using a commercially available kit (Bio Clinical System, Korea).

C57BL/6J mice [6] = test: Body and visceral fat-pad weights of mice fed high-fat test diets (LJ-2529 study); assay type: in vivo; settings: 14 weeks; for decrease of daily food intake: supplemented high-fat diet
Protocol: The obesity-inducing control diet used in the test was high-fat diet (HFD: 40% fat calorie, 17 g lard+3% corn oil/100 g diet). Diets supplemented with LJ-2529 compound or piperine had the same composition as HFD, except that LJ-2529 was included at 0.05%.
5-week-old male C57BL/6J mice (Orient, Korea) were accustomed to the laboratory environment for 1 week while feeding solid feed. […] The diet was given between 10 and 11 a.m. every day together with water. Food intake was measured every day and body weight was measured once a week. In order to avoid transient body weight increase after feed intake, body weight was measured 2 hours after removing the feed. After fasting the test animal for at least 12 hours and anesthetizing with diethyl ether, blood, liver and visceral fat (epididymal fat, perirenal fat, mesenteric fat and retroperitoneal fat) were taken and weighed after washing with 0.1M PBS (pH 7.4). Blood taken from the abdominal aorta was centrifuged at 1000×g for 15 minutes for the separation of plasma.

Q: Which results are given for `Cc1ccc(C)c(/C=C/C=C\C(=O)N2CCCCC2)c1` [LJ-2498, Cis-(2E,4E)-5-(2,5-dimethyl-phenyl)-1-(piperidin-1-yl) penta-2,4-dien-1-one]?
A: differentiation of the preadipocytes 3T3L1 [1]: reduced the differentiation of the preadipocytes 3T3L1 in a concentration-dependent manner; insulin resistance improving effect versus control drugs metformin and sibutramine (C57BL/6J mice [2]): more excellent than those of control drugs; blood glucose concentration after oral glucose as compared with HFD (C57BL/6J mice [2]; 2 g glucose/kg, 15, 30, 60, 120 min): further reduced over all the time zones; reduction of fasting blood glucose as compared with HFD (C57BL/6J mice [2]; 6 hours fasting): 20%; epididymal fat weight per body weight as compared to HFD (C57BL/6J mice [3]): significantly lower; lower accumulated body weight gain as compared to HFD (C57BL/6J mice [3]): 23%; lower total visceral fat weight compared to HFD (C57BL/6J mice [3]): 28%; mesenteric fat weight per body weight as compared to HFD (C57BL/6J mice [3]): significantly lower; perirenal fat weight per body weight as compared to HFD (C57BL/6J mice [3]): significantly lower; retroperitoneal fat weight per body weight as compared to HFD (C57BL/6J mice [3]): significantly lower; visceral fat weight as compared to HFD group (C57BL/6J mice [3]): significantly lower; decrease of liver weight compared to HFD (C57BL/6J mice [4]): 23%; decreased level of cholesterol in liver tissue as compared to HFD (C57BL/6J mice [4]): 41%; decreased level of triglyceride in liver tissue as compared to HFD (C57BL/6J mice [4]): 29%; liver tissue appearance as compared to HFD (C57BL/6J mice [4]; images): darker and smaller liver tissue; decreased plasma activity of ALT as compared to HFD (C57BL/6J mice [5]): 27%; decreased plasma activity of AST as compared to HFD (C57BL/6J mice [5]): 15%; lower plasma level of free fatty acid as compared to HFD (C57BL/6J mice [5]): 25%; lower plasma level of total cholesterol as compared to HFD (C57BL/6J mice [5]): 20%; lower plasma level of triglyceride as compared to HFD (C57BL/6J mice [5]): 21%

Q: For `O=C(/C=C/C=C/c1ccc2c(c1)OCO2)N1CCCC1` [LJ-2487, (2E,4E)-5-(benzo[d][1,3]dioxol-5-yl)-1-(pyrrolidin-1-yl)penta-2,4-dien-1-one], which “differentiation of the preadipocytes 3T3L1” value (“differentiation” for short) [1] is on record?
A: Its value is “reduced the differentiation of the preadipocytes 3T3L1 in a concentration-dependent manner”.

Q: Which “body weight gain change (signed) versus HFD” value (C57BL/6J mice [6]; piperine-supplemented high-fat diet) does the source give for `O=C(/C=C/C=C/c1ccc2c(c1)OCO2)N1CCCCC1` [piperine, Piperine] here?
A: The value was −48%.

Q: And the “decrease of daily food intake” value (C57BL/6J mice [6])?
A: Its value is 27%.

Q: With `COc1ccc(/C=C/C=C/C(=O)N2CCCCC2)c(OC)c1` [LJ-2490, (2E,4E)-5-(2,4-dimethoxy-phenyl)-1-(piperidin-1-yl) penta-2,4-dien-1-one] as the compound, how does the “differentiation” value [1] read?
A: The value was “reduced the differentiation of the preadipocytes 3T3L1 in a concentration-dependent manner”.

Q: Which results are given for `COc1cccc(/C=C/C=C/C(=O)N2CCCCC2)c1OC` [LJ-2489, (2E,4E)-5-(2,3-dimethoxy-phenyl)-1-(piperidin-1-yl) penta-2,4-dien-1-one]?
A: differentiation of the preadipocytes 3T3L1 [1]: reduced the differentiation of the preadipocytes 3T3L1 in a concentration-dependent manner; reduction of area under the curve (ACU) for blood glucose concentrations as compared with HFD (C57BL/6J mice [2]; 2 g glucose/kg oral): 17%

Q: For `Cc1ccc(C)c(/C=C/C=C/C(=O)N2CCCCC2)c1` [LJ-2497, Trans-(2E,4E)-5-(2,5-dimethylphenyl)-1-(piperidin-1-yl) penta-2,4-dien-1-one], which “differentiation” value [1] is on record?
A: Its value is “reduced the differentiation of the preadipocytes 3T3L1 in a concentration-dependent manner”.

Q: With `C(=N\c1ccccc1)/c1ccc2c(c1)OCO2` [LJ-2477, (E)-N-(benzo[d][1,3]dioxol-5-ylmethylene)aniline] as the compound, how does the “differentiation” value [1] read?
A: The value was “reduced the differentiation of the preadipocytes 3T3L1 in a concentration-dependent manner”.

Q: With `O=c1[nH]c2ccc(/N=C/c3cc4c(cc3Br)OCO4)cc2[nH]1` [LJ-2527] as the compound, how does the “differentiation” value [1] read?
A: The value was “reduced the differentiation of the preadipocytes 3T3L1 in a concentration-dependent manner”.

Q: How did the “decrease of FER (feed efficiency ratio) compared with HFD” value (C57BL/6J mice [6]; 0.05% in high-fat diet) turn out when `O=c1[nH]c2ccc(/N=C/c3c(Br)ccc4c3OCO4)cc2[nH]1` [LJ-2529] was run?
A: The value was 60%.

Q: And the “decrease of body weight gain as compared to HFD” value (C57BL/6J mice [6]; 0.05% in high-fat diet)?
A: The value was 60%.

Q: What about the “epididymal fat-pad weight as compared to HFD” value (C57BL/6J mice [6]; 0.05% in high-fat diet) of the same compound?
A: The value was “significantly reduced”.

Q: And the “mesenteric fat-pad weight as compared to HFD” value (C57BL/6J mice [6]; 0.05% in high-fat diet)?
A: The value was “significantly reduced”.

Q: And the “perirenal fat-pad weight as compared to HFD” value (C57BL/6J mice [6]; 0.05% in high-fat diet)?
A: The value was “significantly reduced”.

Q: And the “retroperitoneal fat-pad weight as compared to HFD” value (C57BL/6J mice [6]; 0.05% in high-fat diet)?
A: Its value is “significantly reduced”.

Q: And the “reduction of total visceral fat weight versus HFD” value (C57BL/6J mice [6]; 0.05% in high-fat diet, P<0.001)?
A: The value was 15%.

Q: What about the “decrease of daily food intake” value (C57BL/6J mice [6]) of the same compound?
A: Its value is 24%.

Q: What about the “differentiation” value [1] of the same compound?
A: Its value is “reduced the differentiation of the preadipocytes 3T3L1 in a concentration-dependent manner”.

Q: `COc1ccc(/C=C/C=C/C(=O)N2CCCCC2)cc1OC` [LJ-2491, (2E,4E)-5-(3,4-dimethoxy-phenyl)-1-(piperidin-1-yl) penta-2,4-dien-1-one] was tested. Which “differentiation” value [1] did it give?
A: The value was “reduced the differentiation of the preadipocytes 3T3L1 in a concentration-dependent manner”.

Q: For `CC(=O)OC/C=C/c1ccc2c(c1)OCO2` [LJ-2196, (E)-3-(benzo[d][1,3]dioxo-5-yl)allyl acetate], which “differentiation” value [1] is on record?
A: The value was “reduced the differentiation of the preadipocytes 3T3L1 in a concentration-dependent manner”.

Q: With `S=c1[nH]c2ccc(/N=C/c3c(Br)ccc4c3OCO4)cc2[nH]1` [SKKU-S-02] as the compound, how does the “differentiation” value [1] read?
A: Its value is “reduced the differentiation of the preadipocytes 3T3L1 in a concentration-dependent manner”.

Q: With `COc1cc(/C=C/C=C/C(=O)N2CCCCC2)cc(OC)c1` [LJ-2492, (2E,4E)-5-(3,5-dimethoxy-phenyl)-1-(piperidin-1-yl) penta-2,4-dien-1-one] as the compound, how does the “differentiation” value [1] read?
A: The value was “reduced the differentiation of the preadipocytes 3T3L1 in a concentration-dependent manner”.

Q: Which “differentiation” value [1] does the source give for `COc1ccc(OC)c(/C=C/C=C/C(=O)N2CCCCC2)c1` [LJ-2488, (2E,4E)-5-(2,5-dimethoxy-phenyl)-1-(piperidin-1-yl) penta-2,4-dien-1-one] here?
A: The value was “reduced the differentiation of the preadipocytes 3T3L1 in a concentration-dependent manner”.
